What all share (experiment): growth of human tumour cells (NCI), 48 h
Experiment [1] relates to 786-0 renal.
In experiment [2] the test system is A498 renal.
Experiment [3] has as its system BT-549 breast.
In experiment [4] the test system is IGROV1 ovarian.
Experiment [5] deals with K-562 leukemia.
Experiment [6] deals with MDA-MB-231 breast.
For experiment [7], the system named is OVCAR-4 ovarian.
The subject of experiment [8] is SF-295 CNS.
Experiment [9] has as its system SK-MEL-2 melanoma.
The subject of experiment [10] is SNB-75 CNS.
The subject of experiment [11] is SR leukemia.
Experiment [12] deals with SW-620 colon.
For experiment [13], the system named is HT29 colon.
The subject of experiment [14] is MDA-N.
Experiment [15] concerns NCI-H522 lung.
Experiment [16] deals with SN12C renal.

Each structure is given as a SMILES string.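 These data come from cells grown in 96-well plates and exposed to compound for 48 hours at five concentrations. TGI is the concentration that stops growth completely.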

For `COc1ccc2oc(C(=O)N3CC(CCl)c4ccc([N+](=O)[O-])cc43)cc2c1` (stereo not drawn), the TGI was 46 µM in experiment [1]; 58.5 µM in experiment [2]; above 100 µM in experiment [3]; 29.5 µM in experiment [4]; above 100 µM in experiment [5]; 54.5 µM in experiment [6]. The TGI in experiment [7] is above 100 µM; in experiment [8], 69.6 µM; in [9], above 100 µM; in experiment [10], 79.3 µM; in experiment [11] it was above 100 µM; in experiment [12], above 100 µM.
For the compound `COC(=O)CCn1cnc2c(SC)ncnc21`, the TGI in experiment [1], in experiment [2], in [13], in experiment [4], in [5] and in experiment [6] was above 100 µM each time. Besides, the TGI in experiment [14], in [15], in [7], in experiment [8], in experiment [16] and in experiment [10] was above 100 µM throughout. The TGI in experiment [11] and in experiment [12] was above 100 µM each time.
Consider `N/N=C1\CCCc2c1no[n+]2[O-]`, for which the TGI in experiment [1], in experiment [2], in [13], in [4], in [5] and in experiment [6] was above 100 µM each time. For the same compound, the TGI in experiment [14], in experiment [15], in experiment [7], in experiment [8], in experiment [9] and in experiment [16] was above 100 µM each time. Further, the TGI in [10], in experiment [11] and in experiment [12] was above 100 µM throughout.
For the compound `CN(C)c1nc(NN)c2c(-c3ccccc3)c(-c3ccccc3)oc2n1`, the TGI in [1], in experiment [2], in experiment [13], in [4], in experiment [5] and in experiment [6] was above 100 µM throughout. Moreover, the TGI in experiment [15], in experiment [7], in experiment [8], in experiment [16], in [10] and in experiment [11] was above 100 µM throughout. The compound further showed a TGI in experiment [12] above 100 µM.
Consider `O=c1ccn2n1CCCCC2`, for which the TGI in experiment [1], in experiment [2], in experiment [13], in experiment [4], in experiment [5] and in experiment [6] was above 100 µM each time. For the same compound, the TGI in experiment [14], in [15], in experiment [7], in experiment [8], in experiment [9] and in [16] was above 100 µM each time. Besides, the TGI in experiment [11] and in [12] was above 100 µM throughout.
On to `COc1ccc([C@H]2CC(=O)NCCCCN2)cc1`, for which the TGI in experiment [1], in experiment [2], in experiment [13], in experiment [4], in experiment [5] and in [15] was above 100 µM each time. The TGI in experiment [7], in [8], in experiment [9], in experiment [16], in experiment [10] and in experiment [11] was above 100 µM in each case.
For `N/N=C1/CCCc2nonc21`, the TGI in experiment [1], in experiment [13], in [4], in experiment [5], in experiment [6] and in experiment [14] was above 100 µM each time. Further, the TGI in experiment [7], in experiment [8], in experiment [9], in experiment [16], in [11] and in experiment [12] was above 100 µM each time.
With `CCOC(=O)CCC(NC(=O)Cc1ccc(Oc2nc3ccccc3nc2-c2cccs2)cc1)C(=O)OCC` (stereo not drawn), the TGI was 15.3 µM in [1]; 84.1 µM in [2]; above 100 µM in experiment [3]; above 100 µM in experiment [13]; above 100 µM in experiment [4]; above 100 µM in experiment [5]. Moreover, the TGI in [6] was 29.1 µM; in experiment [15] it was above 100 µM; in experiment [7], 94 µM; in [8] it was above 100 µM; in experiment [9] it was above 100 µM; in [16], above 100 µM. The TGI in [11] and in [12] was above 100 µM each time.
For the compound `NC1=NNC2(C(N)=N1)c1ccccc1-c1ccccc12`, the TGI in [1], in experiment [3], in experiment [13], in experiment [4], in experiment [6] and in experiment [15] was above 10 µM each time. In addition, the TGI in experiment [7], in experiment [8], in [16], in experiment [10], in experiment [11] and in [12] was above 10 µM in each case.
`CC(=O)O[C@H]1C(=O)[C@@]2(C)C(C(OC(=O)c3ccccc3)[C@]3(O)CC(OC(=O)C(O)C(NC(=O)c4ccc(C)cc4)c4ccccc4)C(C)=C1C3(C)C)[C@]1(OC(C)=O)CO[C@@H]1C[C@@H]2O` (stereo partly drawn): the TGI in experiment [1] is above 25 µM; in experiment [2], 14.1 µM; in experiment [4], 0.101 µM; in [5] it was 5.77 µM; in experiment [15], below 0.0025 µM; in experiment [7] it was above 25 µM. For the same compound, the TGI in experiment [8] is 0.107 µM; in [9], 0.0141 µM; in experiment [16], above 25 µM; in experiment [10] it was 0.0486 µM.
